These results are taken from US20080200454A1, “CARBON-LINKED TETRAHYDRO-PYRAZOLO-PYRIDINE MODULATORS OF CATHEPSIN S” (priority 2007, published 2008).

The target in one assay is Recombinant human cathepsin S (CatS) (Homo sapiens, UniProt P25774). The assay is described as follows: Recombinant human cathepsin S (CatS) inhibition assay, fluorogenic substrate Z-Valine-Valine-Arginine-AMC.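 Further: Baculovirus-expressed CatS in pH 5.0 sodium acetate buffer with DTT and NaCl, fluorescence read each minute over 20 min, inhibition derived from rate slope.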
Sequence of Recombinant human cathepsin S (CatS) (P25774 115-331): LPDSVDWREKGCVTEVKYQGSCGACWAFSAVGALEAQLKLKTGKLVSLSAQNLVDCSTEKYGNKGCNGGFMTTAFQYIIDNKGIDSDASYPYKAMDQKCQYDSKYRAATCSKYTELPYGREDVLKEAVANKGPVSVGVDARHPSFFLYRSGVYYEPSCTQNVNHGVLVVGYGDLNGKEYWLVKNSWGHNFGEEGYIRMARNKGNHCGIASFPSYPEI
Details: not given
One may read the IC50 as the concentration at which inhibition is half-maximal. Take `CS(=O)(=O)N1CCc2c(c(-c3ccc(Cl)c(C#CCOc4ccccc4)c3)nn2CCCN2CCOCC2)C1` [Example 52, 3-[4-Chloro-3-(3-phenoxy-prop-1-ynyl)-phenyl]-5-methanesulfonyl-1-(3-morpholin-4-yl-propyl)-4,5,6,7-tetrahydro-1H-pyrazolo[4,3-c]pyridine]: the IC50 came to 13500 nM.

With `CS(=O)(=O)N1CCc2c(c(-c3ccc(Cl)c(C#CCNC(=O)c4ccccc4)c3)nn2CCCN2CCOCC2)C1` [Example 53, N-(3-{2-Chloro-5-[5-methanesulfonyl-1-(3-morpholin-4-yl-propyl)-4,5,6,7-tetrahydro-1H-pyrazolo[4,3-c]pyridin-3-yl]-phenyl}-prop-2-ynyl)-benzamide], the half-maximal inhibitory concentration (IC50) was determined as 15500 nM.

For `CS(=O)(=O)N1CCc2c(c(-c3ccc(Cl)c(C#CCNS(=O)(=O)c4ccccc4)c3)nn2CCCN2CCOCC2)C1` [Example 54, N-(3-{2-Chloro-5-[5-methanesulfonyl-1-(3-morpholin-4-yl-propyl)-4,5,6,7-tetrahydro-1H-pyrazolo[4,3-c]pyridin-3-yl]-phenyl]-prop-2-ynyl)-benzenesulfonamide], the concentration for half-maximal inhibition (IC50) amounted to 7050 nM.

Take `CS(=O)(=O)N1CCc2c(c(-c3ccc(Cl)c(CCc4ccc(Oc5ccccc5)cc4)c3)nn2CCCN2CCOCC2)C1` [Example 55, 3-{4-Chloro-3-[2-(4-phenoxy-phenyl)-ethyl]-phenyl}-5-methanesulfonyl-1-(3-morpholin-4-yl-propyl)-4,5,6,7-tetrahydro-1H-pyrazolo[4,3-c]pyridine]: the IC50 was found to be 1070 nM.

`CS(=O)(=O)N1CCc2c(c(-c3ccc(Cl)c(CCc4cccc(O)c4)c3)nn2CCCN2CCOCC2)C1` [Example 56, 3-(2-{2-Chloro-5-[5-methanesulfonyl-1-(3-morpholin-4-yl-propyl)-4,5,6,7-tetrahydro-1H-pyrazolo[4,3-c]pyridin-3-yl]-phenyl}-ethyl)-phenol]: the IC50 stood at 910 nM.

With `CS(=O)(=O)N1CCc2c(c(-c3ccc(Cl)c(CCc4ccc(Cl)cc4)c3)nn2CCCN2CCOCC2)C1` [Example 57, 3-{4-Chloro-3-[2-(4-chloro-phenyl)-ethyl]-phenyl}-5-methanesulfonyl-1-(3-morpholin-4-yl-propyl)-4,5,6,7-tetrahydro-1H-pyrazolo[4,3-c]pyridine], the IC50 came out at 230 nM.

On to `COc1ccc(CCc2cc(-c3nn(CCCN4CCOCC4)c4c3CN(S(C)(=O)=O)CC4)ccc2Cl)cc1` [Example 58, 3-{4-Chloro-3-[2-(4-methoxy-phenyl)-ethyl]-phenyl}-5-methanesulfonyl-1-(3-morpholin-4-yl-propyl)-4,5,6,7-tetrahydro-1H-pyrazolo[4,3-c]pyridine], for which the IC50 is 530 nM.

On to `CS(=O)(=O)N1CCc2c(c(-c3ccc(Cl)c(CCc4ccc(F)cc4F)c3)nn2CCCN2CCOCC2)C1` [Example 59, 3-{4-Chloro-3-[2-(2,4-difluoro-phenyl)-ethyl]-phenyl}-5-methanesulfonyl-1-(3-morpholin-4-yl-propyl)-4,5,6,7-tetrahydro-1H-pyrazolo[4,3-c]pyridine], for which the 50% inhibitory concentration (IC50) was 660 nM.

Take `Cc1ccccc1CCc1cc(-c2nn(CCCN3CCOCC3)c3c2CN(S(C)(=O)=O)CC3)ccc1Cl` [Example 60, 3-[4-Chloro-3-(2-o-tolyl-ethyl)-phenyl]-5-methanesulfonyl-1-(3-morpholin-4-yl-propyl)-4,5,6,7-tetrahydro-1H-pyrazolo[4,3-c]pyridine]: the half-maximal inhibitory concentration (IC50) amounted to 880 nM.

Turning to `CS(=O)(=O)N1CCc2c(c(-c3ccc(Cl)c(CCc4ccc(CO)cc4)c3)nn2CCCN2CCOCC2)C1` [Example 61, [4-(2-{2-Chloro-5-[5-methanesulfonyl-1-(3-morpholin-4-yl-propyl)-4,5,6,7-tetrahydro-1H-pyrazolo[4,3-c]pyridin-3-yl]-phenyl}-ethyl)-phenyl]-methanol], the 50% inhibitory concentration (IC50) worked out at 200 nM.

As for `CS(=O)(=O)N1CCc2c(c(-c3ccc(Cl)c(CCc4ccccc4)c3)nn2CCCN2CCOCC2)C1` [Example 62, 3-(4-Chloro-3-phenethyl-phenyl)-5-methanesulfonyl-1-(3-morpholin-4-yl-propyl)-4,5,6,7-tetrahydro-1H-pyrazolo[4,3-c]pyridine], the half-maximal inhibitory concentration (IC50) came to 1230 nM.

For the compound `CS(=O)(=O)N1CCc2c(c(-c3ccc(Cl)c(CCCc4ccccc4)c3)nn2CCCN2CCOCC2)C1` [Example 63, 3-[4-Chloro-3-(3-phenyl-propyl)-phenyl]-5-methanesulfonyl-1-(3-morpholin-4-yl-propyl)-4,5,6,7-tetrahydro-1H-pyrazolo[4,3-c]pyridine], the IC50 was 1400 nM.

As to `CS(=O)(=O)N1CCc2c(c(-c3ccc(Cl)c(CCCNC(=O)c4ccccc4)c3)nn2CCCN2CCOCC2)C1` [Example 64, N-(3-{2-Chloro-5-[5-methanesulfonyl-1-(3-morpholin-4-yl-propyl)-4,5,6,7-tetrahydro-1H-pyrazolo[4,3-c]pyridin-3-yl]-phenyl}-propyl)-benzamide], the IC50 came out at 5400 nM.

On to `CS(=O)(=O)N1CCc2c(c(-c3ccc(Cl)c(CCCNS(=O)(=O)c4ccccc4)c3)nn2CCCN2CCOCC2)C1` [Example 65, N-(3-{2-Chloro-5-[5-methanesulfonyl-1-(3-morpholin-4-yl-propyl)-4,5,6,7-tetrahydro-1H-pyrazolo[4,3-c]pyridin-3-yl]-phenyl}-propyl)-benzenesulfonamide], for which the IC50 amounted to 1070 nM.

Take `CC(=O)Nc1ccc(C#Cc2cc(-c3nn(CCCN4CCOCC4)c4c3CN(S(C)(=O)=O)CC4)ccc2Cl)cc1` [Example 66, N-(4-{2-Chloro-5-[5-methanesulfonyl-1-(3-morpholin-4-yl-propyl)-4,5,6,7-tetrahydro-1H-pyrazolo[4,3-c]pyridin-3-yl]-phenylethynyl}-phenyl)-acetamide]: the half-maximal inhibitory concentration (IC50) turned out to be 250 nM.

As to `CS(=O)(=O)N1CCc2c(c(-c3ccc(Cl)c(/C=C\c4ccccc4)c3)nn2CCCN2CCOCC2)C1` [Example 67, 3-(4-Chloro-3-Z-styryl-phenyl)-5-methanesulfonyl-1-(3-morpholin-4-yl-propyl)-4,5,6,7-tetrahydro-1H-pyrazolo[4,3-c]pyridine], the IC50 worked out at 3050 nM.

Turning to `CS(=O)(=O)N1CCc2c(c(-c3ccc(Cl)c(/C=C/c4ccccc4)c3)nn2CCCN2CCOCC2)C1` [Example 68, 3-(4-Chloro-3-E-styryl-phenyl)-5-methanesulfonyl-1-(3-morpholin-4-yl-propyl)-4,5,6,7-tetrahydro-1H-pyrazolo[4,3-c]pyridine], the concentration for half-maximal inhibition (IC50) was determined as 2850 nM.

Consider `CS(=O)(=O)N1CCc2c(c(-c3ccc(Cl)c(C#Cc4ccc(CN)cc4)c3)nn2CCCN2CCOCC2)C1` [Example 69, 4-{2-Chloro-5-[5-methanesulfonyl-1-(3-morpholin-4-yl-propyl)-4,5,6,7-tetrahydro-1H-pyrazolo[4,3-c]pyridin-3-yl]-phenylethynyl}-benzylamine], for which the IC50 was 530 nM.

For the compound `CS(=O)(=O)NCc1ccc(C#Cc2cc(-c3nn(CCCN4CCOCC4)c4c3CN(S(C)(=O)=O)CC4)ccc2Cl)cc1` [Example 70, N-(4-{2-Chloro-5-[5-methanesulfonyl-1-(3-morpholin-4-yl-propyl)-4,5,6,7-tetrahydro-1H-pyrazolo[4,3-c]pyridin-3-yl]-phenylethynyl}-benzyl)-methanesulfonamide], the half-maximal inhibitory concentration (IC50) stood at 270 nM.

Staying with this assay, now noted: CatS IC50.
Consider `CC(C)CC#Cc1cc(-c2nn(CCCN3CCOCC3)c3c2CN(S(C)(=O)=O)CC3)ccc1Cl` [Example 51, 3-[4-Chloro-3-(4-methyl-pent-1-ynyl)-phenyl]-5-methanesulfonyl-1-(3-morpholin-4-yl-propyl)-4,5,6,7-tetrahydro-1H-pyrazolo[4,3-c]pyridine], for which the IC50 worked out at 8250 nM.
